From patent publication US20240207396A1 (priority 2021, published 2024)

Experiments:
[1] = test system: C. albicans; format: in vivo; settings: immunocompromised mice; for Survival rate: 7 days after fatal dose of C. albicans by tail vein at week 8; for Survival number after 7 days: fatal dose of C. albicans by tail vein at week 8, 20 mice per group, fluconazole 50 mg/kg d intragastric for 7 days
[2] = test system: Th17 cells (cytokine IL-17F); settings: in words; after immunization vs. blank control group
Method: The effectiveness of the vaccine was studied by using an immunocompromised (neutropenia) mouse model. […] To investigate the T cell-mediated immune response, mouse blood was taken and detected for a change in cytokine IL-17F level in Th17 cells to evaluate the immunogenicity of chitosan oligosaccharide-carrier protein vaccine.
6-8-week-old Balb/c female mice were selected, and adaptively fed for 3-7 d. 20 g/L cyclophosphamide was prepared with normal saline, and the cyclophosphamide was injected intraperitoneally by body weight of 200 mg/kg. The number of neutrophils in the mouse blood was measured by a SYSMEX XT-2000i automatic blood analyzer after 3 days. If the number of the neutrophils was <500/mm^3, the experiment could be continued. After that, the cyclophosphamide was injected every 10 days at a dose of 150 mg/kg, which was maintained throughout the test period.
A normal saline blank control group, a KLH group, a chitosan oligosaccharide group, a chitosan oligosaccharide-KLH group in Example 6, a fluconazole group (as a positive control of a challenge test) were set up, with 10 mice in each group. At weeks 0, 2, 4 and 6 at the start of the experiment, the mice were injected subcutaneously from multiple points on the neck and back, with an injection amount of 2.5 mg/kg. The normal saline blank group was injected with normal saline, and the fluconazole group was not injected. […]

Row | Compound | Survival rate [1] | Survival number after 7 days [1] | Change of proportion of intracellular IL-17F compared with blank control group [2]
1 | OC(Cn1cncn1)(Cn1cncn1)c1ccc(F)cc1F [Fluconazole, fluconazole, reference compound] | 50% | 10 | 
2 | keyhole limpet hemocyanin [KLH] | 30% | 6 | increased to a certain extent
